{
  "source": "patent US8034602B2",
  "about": "(priority 2006, dated 2011)",
  "system": "mutant strain CJR0500",
  "experiment": "Flask fermentation with tryptophan added to fermentation medium",
  "assay_type": "cell-based, Corynebacterium glutamicum",
  "settings": "50 mg/L tryptophan in fermentation medium, 30° C., 64 hrs, shaking",
  "data": [
    {"smiles": "N[C@@H](Cc1c[nH]c2ccccc12)C(=O)O", "note": "[Tryptophan, L-tryptophan]", "values": [
      {"measurement": "Effect of tryptophan addition on growth", "result": "stimulate the growth"}
    ]}
  ]
}
